Measurements: ChEMBL document CHEMBL1212738, “Phenotypic and genotypic characterization of Enterobacteriaceae with decreased susceptibility to carbapenems: results from large hospital-based surveillance studies in China” (2010)

Legend:
Enterobacter cloacae [1] = assay: Antimicrobial activity against carbapenem-resistant Enterobacter cloacae SZ93 deficient in ompC by CLSI method; assay type: functional
Klebsiella pneumoniae [2] = assay: Antimicrobial activity against carbapenem-resistant Klebsiella pneumoniae PU5 deficient in SHV-12, DHA-1, aac(6')-Ib-cr, ompK35/36 by CLSI method; assay type: functional
Klebsiella pneumoniae [3] = assay: Antimicrobial activity against carbapenem-resistant Klebsiella pneumoniae GZ84 deficient in SHV-11, aac(6')-Ib-cr, ompK35 by CLSI method; assay type: functional
Escherichia coli [4] = assay: Antimicrobial activity against Escherichia coli ZJ87T expressing KPC-2 by CLSI method; assay type: functional
Klebsiella pneumoniae [5] = assay: Antimicrobial activity against carbapenem-resistant Klebsiella pneumoniae FZ47 deficient in IMP-8, TEM-1, SHV-11, CTX-M-14, qnrB2, aac(6')-Ib, ompK35/36 by CLSI method; assay type: functional
Escherichia coli [6] = assay: Antimicrobial activity against Escherichia coli C600 transconjugant SZ62T expressing IMP-4, qnrS1by CLSI method
Klebsiella aerogenes [7] = assay: Antimicrobial activity against Enterobacter aerogenes PU41T expressing CTX-M-14, DHA-1, qnrS1 by CLSI method; assay type: functional
Klebsiella pneumoniae [8] = assay: Antimicrobial activity against Klebsiella pneumoniae CY1T expressing SHV-11, DHA-1 by CLSI method; assay type: functional
Escherichia coli [9] = assay: Antimicrobial activity against Escherichia coli C600 transconjugant WH77T expressing IMP-4, TEM-1, CTX-M-3, qnrS1 by CLSI method
Klebsiella pneumoniae [10] = assay: Antimicrobial activity against carbapenem-resistant Klebsiella pneumoniae PU105 deficient TEM-1, SHV-12, CTX-M-14, DHA-1, qnrB10/B4-like, aac(6')-Ib-cr, ompK35/36 by CLSI method; assay type: functional
Klebsiella pneumoniae [11] = assay: Antimicrobial activity against carbapenem-resistant Klebsiella pneumoniae ZJ68 deficient in CTX-M-15, ompK35/36 by CLSI method
Klebsiella pneumoniae [12] = assay: Antimicrobial activity against Klebsiella pneumoniae WH97 expressing SHV-33, aac(6')-Ib, ompK35 DE by CLSI method; assay type: functional
Klebsiella pneumoniae [13] = assay: Antimicrobial activity against carbapenem-resistant Klebsiella pneumoniae CY1 deficient in SHV-11, DHA-1, ompK35/36 by CLSI method; assay type: functional
Klebsiella pneumoniae [14] = assay: Antimicrobial activity against Klebsiella pneumoniae ZJ99 expressing KPC-2, CTX-M-3, qnrS1, ompK35 DE by CLSI method; assay type: functional
Escherichia coli [15] = assay: Antimicrobial activity against Escherichia coli HX74T expressing CTX-M-3 by CLSI method; assay type: functional
Klebsiella pneumoniae [16] = assay: Antimicrobial activity against carbapenem-resistant Klebsiella pneumoniae CY75 deficient in SHV-11, DHA-1, ompK35/36 by CLSI method; assay type: functional
Enterobacter cloacae [17] = assay: Antimicrobial activity against carbapenem-resistant Enterobacter cloacae SZ92 deficient in IMP-4, TEM-1, CTX-M-14, DHA-1, qnrB10/B4-like, aac(6')-Ib, ompC by CLSI method; assay type: functional
Escherichia coli [18] = assay: Antimicrobial activity against carbapenem-resistant Escherichia coli PU96 deficient in TEM-1, CTX-M-14, CMY-2, ompC/F by CLSI method; assay type: functional
Klebsiella pneumoniae [19] = assay: Antimicrobial activity against carbapenem-resistant Klebsiella pneumoniae SZ61 deficient in TEM-1, SHV-1a, CMY-2, ompK35/36 by CLSI method; assay type: functional
Escherichia coli [20] = assay: Antimicrobial activity against carbapenem-resistant Escherichia coli ZJ86 expressing KPC-2, TEM-1 with ompC loss by CLSI method
Klebsiella pneumoniae [21] = assay: Antimicrobial activity against Klebsiella pneumoniae FZ49T expressing IMP-8, TEM-1, CTX-M-14, qnrB2, aac(6')-Ib by CLSI method; assay type: functional
Klebsiella pneumoniae [22] = assay: Antimicrobial activity against Klebsiella pneumoniae WH76 expressing IMP-4, TEM-1, SHV-14, CTX-M-3, qnrS1 by CLSI method; assay type: functional
Klebsiella aerogenes [23] = assay: Antimicrobial activity against carbapenem-resistant Enterobacter aerogenes WH85 deficient in TEM-1, CTX-M-3, ompC/F by CLSI method; assay type: functional
Klebsiella pneumoniae [24] = assay: Antimicrobial activity against Klebsiella pneumoniae ZJ70T expressing KPC-2 by CLSI method; assay type: functional
Escherichia coli [25] = assay: Antimicrobial activity against Escherichia coli ZJ86T expressing KPC-2 by CLSI method; assay type: functional
Escherichia coli [26] = assay: Antimicrobial activity against carbapenem-resistant Escherichia coli PU101 deficient in TEM-1, CTX-M-14, CMY-2, ompC by CLSI method; assay type: functional
Enterobacter cloacae [27] = assay: Antimicrobial activity against carbapenem-resistant Enterobacter cloacae NJ91 deficient in CTX-M-14, ompC/F by CLSI method; assay type: functional
Citrobacter freundii [28] = assay: Antimicrobial activity against Citrobacter freundii SZ63 expressing IMP-4, qnrS1by CLSI method; assay type: functional
Escherichia coli [29] = assay: Antimicrobial activity against Escherichia coli ZJ87 expressing KPC-2, TEM-1, ompC by CLSI method; assay type: functional
Escherichia coli [30] = assay: Antimicrobial activity against carbapenem-resistant Escherichia coli PU102 deficient in TEM-1, CTX-M-14, CMY-2, aac(6')-Ib, ompC DEc, ompF by CLSI method; assay type: functional
Klebsiella pneumoniae [31] = assay: Antimicrobial activity against Klebsiella pneumoniae PU104T expressing TEM-1, CTX-M-15 by CLSI method; assay type: functional
Klebsiella pneumoniae [32] = assay: Antimicrobial activity against carbapenem-resistant Klebsiella pneumoniae ZJ70 deficient in KPC-2, SHV-11, CTX-M-14, ompK35/36 by CLSI method; assay type: functional
Citrobacter freundii [33] = assay: Antimicrobial activity against Citrobacter freundii SZ63T expressing IMP-4, qnrS1by CLSI method; assay type: functional
Klebsiella aerogenes [34] = assay: Antimicrobial activity against carbapenem-resistant Enterobacter aerogenes PU41 deficient in CTX-M-14, DHA-1, qnrS1, ompC DEc, ompF by CLSI method; assay type: functional
Enterobacter cloacae [35] = assay: Antimicrobial activity against carbapenem-resistant Enterobacter cloacae NJ90 deficient in CTX-M-14, ompC/F by CLSI method; assay type: functional
Escherichia coli [36] = assay: Antimicrobial activity against Escherichia coli C600 transconjugant GZ66T expressing SHV-11, DHA-1 by CLSI method
Klebsiella pneumoniae [37] = assay: Antimicrobial activity against Klebsiella pneumoniae GZ64 expressing IMP-4, ompK35/36 by CLSI method; assay type: functional
Escherichia coli [38] = assay: Antimicrobial activity against Escherichia coli C600 by CLSI method; assay type: functional
Klebsiella pneumoniae [39] = assay: Antimicrobial activity against carbapenem-resistant Klebsiella pneumoniae ZJ18 deficient in KPC-2, SHV-28, DHA-1, ompK35 by CLSI method; assay type: functional
Escherichia coli [40] = assay: Antimicrobial activity against Escherichia coli PU102T expressing TEM-1, CTX-M-14, CMY-2 by CLSI method; assay type: functional
Klebsiella pneumoniae [41] = assay: Antimicrobial activity against Klebsiella pneumoniae GZ64T expressing IMP-4 by CLSI method; assay type: functional
Klebsiella pneumoniae [42] = assay: Antimicrobial activity against carbapenem-resistant Klebsiella pneumoniae PU4 deficient in SHV-1, DHA-1, ompK35/36 by CLSI method; assay type: functional

Measured: MIC

CO/N=C(\C(=O)N[C@@H]1C(=O)N2C(C(=O)O)=C(COC(C)=O)CS[C@H]12)c1csc(N)n1 [CEFOTAXIME]
4 µg/mL: Klebsiella pneumoniae [8]
0.13 µg/mL: Escherichia coli [38]
64 µg/mL: Escherichia coli [20] | Klebsiella pneumoniae [24] | Escherichia coli [29]
1 µg/mL: Enterobacter cloacae [1]
256 µg/mL: Klebsiella pneumoniae [3] | Klebsiella pneumoniae [5] | Escherichia coli [9] | Klebsiella pneumoniae [31] | Citrobacter freundii [33] | Klebsiella pneumoniae [37] | Escherichia coli [40]
16 µg/mL: Escherichia coli [36] | Klebsiella pneumoniae [42]
128 µg/mL: Escherichia coli [6] | Klebsiella aerogenes [7] | Klebsiella pneumoniae [12] | Klebsiella pneumoniae [13] | Klebsiella pneumoniae [14] | Klebsiella pneumoniae [19] | Klebsiella pneumoniae [21] | Klebsiella pneumoniae [22] | Klebsiella pneumoniae [39] | Klebsiella pneumoniae [41]
32 µg/mL: Escherichia coli [4] | Escherichia coli [25]
> 256 µg/mL: all other assays above

CN(C)c1cc(NC(=O)CNC(C)(C)C)c(O)c2c1C[C@H]1C[C@H]3[C@H](N(C)C)C(O)=C(C(N)=O)C(=O)[C@@]3(O)C(O)=C1C2=O [TIGECYCLINE]
0.06 µg/mL: Escherichia coli [9] | Klebsiella pneumoniae [21] | Escherichia coli [38] | Klebsiella pneumoniae [41]
0.13 µg/mL: Escherichia coli [6] | Klebsiella pneumoniae [24] | Citrobacter freundii [33]
16 µg/mL: Klebsiella pneumoniae [13]
2 µg/mL: Klebsiella pneumoniae [10]
0.25 µg/mL: Escherichia coli [4] | Escherichia coli [20] | Escherichia coli [25] | Escherichia coli [29] | Escherichia coli [30] | Klebsiella pneumoniae [31] | Klebsiella pneumoniae [32] | Escherichia coli [40]
0.5 µg/mL: Klebsiella pneumoniae [2] | Klebsiella pneumoniae [3] | Klebsiella pneumoniae [12] | Klebsiella pneumoniae [22] | Enterobacter cloacae [27] | Enterobacter cloacae [35] | Klebsiella pneumoniae [37]
0.125 µg/mL: Klebsiella pneumoniae [11] | Escherichia coli [15] | Escherichia coli [36]
4 µg/mL: Klebsiella pneumoniae [19] | Klebsiella pneumoniae [42]
0.064 µg/mL: Klebsiella aerogenes [7] | Klebsiella aerogenes [23] | Escherichia coli [26]
1 µg/mL: all other assays above

C[C@@H](O)[C@H]1C(=O)N2C(C(=O)O)=C(S[C@@H]3CN[C@H](C(=O)Nc4cccc(C(=O)O)c4)C3)[C@H](C)[C@H]12
32 µg/mL: Klebsiella pneumoniae [13] | Enterobacter cloacae [17] | Escherichia coli [20] | Klebsiella pneumoniae [37] | Klebsiella pneumoniae [42]
0.016 µg/mL: Klebsiella pneumoniae [31]
0.032 µg/mL: Klebsiella aerogenes [7]
64 µg/mL: Klebsiella pneumoniae [2] | Klebsiella pneumoniae [11] | Klebsiella pneumoniae [16] | Klebsiella pneumoniae [19] | Escherichia coli [30] | Klebsiella aerogenes [34]
0.008 µg/mL: Klebsiella pneumoniae [8] | Escherichia coli [36] | Escherichia coli [38]
> 256 µg/mL: Klebsiella pneumoniae [32]
8 µg/mL: Klebsiella pneumoniae [3] | Klebsiella pneumoniae [5] | Klebsiella pneumoniae [14]
2 µg/mL: Klebsiella pneumoniae [22]
128 µg/mL: Klebsiella pneumoniae [10] | Escherichia coli [18] | Escherichia coli [26] | Enterobacter cloacae [27] | Enterobacter cloacae [35]
0.25 µg/mL: Escherichia coli [40]
16 µg/mL: Escherichia coli [4] | Klebsiella aerogenes [23] | Klebsiella pneumoniae [24] | Escherichia coli [25] | Escherichia coli [29] | Klebsiella pneumoniae [39]
0.064 µg/mL: Enterobacter cloacae [1] | Escherichia coli [15]
4 µg/mL: all other assays above
